≈ marks a conversion by molar mass, not a printed value.
Tests used:
E. coli CMCC 44103 = assay: MIC by broth microdilution; details: Escherichia coli, CMCC44103, 24 h, read-out: Minimum inhibitory concentration E.c.^i
E. coli ATCC 25922 = assay: MIC by broth microdilution; details: Escherichia coli, ATCC25922, 24 h, read-out: Minimum inhibitory concentration E.c.^h
[1] = tested on: Methicillin-resistant S. aureus ATCC 43300; assay: MIC by broth microdilution; details: Staphylococcus aureus, ATCC43300|MRSA, 24 h, read-out: Minimum inhibitory concentration MRSA^c
[2] = tested on: Methicillin-resistant S. aureus ATCC 33591; assay: MIC by broth microdilution; details: Staphylococcus aureus, ATCC33591|MRSA, 24 h, read-out: Minimum inhibitory concentration MRSA^b
physchem = details: thermodynamic from solid
[3] = tested on: Methicillin-resistant S. epidermidis ATCC 51625; assay: MIC by broth microdilution; details: Staphylococcus epidermidis, ATCC51625|MRSE, 24 h, read-out: Minimum inhibitory concentration MRSE^e
S. aureus ATCC 29213 = assay: MIC by broth microdilution; details: Staphylococcus aureus, ATCC29213, 24 h, read-out: Minimum inhibitory concentration S.a.^d
S. enterica ATCC14028 = assay: MIC by broth microdilution; details: Salmonella enterica, ATCC14028, 24 h, read-out: Minimum inhibitory concentration S.e.^g
A. baumannii ATCC 19606 = assay: MIC by broth microdilution; details: Acinetobacter baumannii, ATCC19606, 24 h, read-out: Minimum inhibitory concentration A.b.^f
HEK293 cells = details: human, 24 h
HepG2 cells = details: human, 24 h
A549 cells = details: human, 24 h

SMILES	MIC (E. coli CMCC 44103)	MIC (E. coli ATCC 25922)	MIC [1]	MIC [2]	solubility (physchem)	MIC [3]	MIC (S. aureus ATCC 29213)	MIC (S. enterica ATCC14028)	MIC (A. baumannii ATCC 19606)	CC50 (HEK293 cells)	CC50 (HepG2 cells)	CC50 (A549 cells)
C=C[C@]1(C)C[C@@H](OC(=O)CSc2nc3cc[n+](Cc4ccc(Br)cc4)cc3s2)[C@]2(C)[C@H](C)CC[C@]3(CCC(=O)[C@H]32)[C@@H](C)[C@@H]1O [Compound I-1, 5-(4-bromobenzyl)-2-((2-(((3aR,4R,5R,7S,8S,9R,9aS,12R)-8-hydroxy-4,7,9,12-tetramethyl-3-oxo-7-vinyldecahydro-4,9a-propancyclopenta[8]cyclo-5-yl)oxy)-2-oxoethyl)thio)thiazolo[5,4-c]pyridin-5-ium]	32 µg/mL	32 µg/mL	16 µg/mL	32 µg/mL	450 µM	8 µg/mL	16 µg/mL	32 µg/mL	16 µg/mL			
C=C[C@]1(C)C[C@@H](OC(=O)CSc2nc3cc[n+](Cc4ccc(C(F)(F)F)cc4)cc3s2)[C@]2(C)[C@H](C)CC[C@]3(CCC(=O)[C@H]32)[C@@H](C)[C@@H]1O [Compound I-2, 5-(4-trifluoromethyl)-2-((2-(((3aR,4R,5R,7S,8S,9R,9aS,12R)-8-hydroxy-4,7,9,12-tetramethyl-3-oxo-7-vinyldecahydro-4,9a-propancyclopenta[8]cyclo-5-yl)oxy)-2-oxoethyl)thio)thiazolo[5,4-c]pyridin-5-ium]	16 µg/mL	8 µg/mL	16 µg/mL	32 µg/mL	327 µM	16 µg/mL	8 µg/mL	8 µg/mL	32 µg/mL			
C=C[C@]1(C)C[C@@H](OC(=O)CSc2nc3cc[n+](Cc4cc(F)c(F)cc4F)cc3s2)[C@]2(C)[C@H](C)CC[C@]3(CCC(=O)[C@H]32)[C@@H](C)[C@@H]1O [Compound I-7, 5-(2,4,5-trifluorobenzyl)-2-((2-(((3aR,4R,5R,7S,8S,9R,9aS,12R)-8-hydroxy-4,7,9,12-tetramethyl-3-oxo-7-vinyldecahydro-4,9a-propancyclopenta[8]cyclo-5-yl)oxy)-2-oxoethyl)thio)thiazolo[5,4-c]pyridin-5-ium]	64 µg/mL	128 µg/mL	64 µg/mL	128 µg/mL	656 µM	64 µg/mL	64 µg/mL	64 µg/mL	128 µg/mL			
C=C[C@]1(C)C[C@@H](OC(=O)CSc2nc3cc[n+](Cc4ccc(-c5ccccc5)cc4)cc3s2)[C@]2(C)[C@H](C)CC[C@]3(CCC(=O)[C@H]32)[C@@H](C)[C@@H]1O [Compound I-10, 5-([1,1′-biphenyl]-4-ylmethyl)-2-((2-(((3aR,4R,5R,7S,8S,9R,9aS,12R)-8-hydroxy-4,7,9,12-tetramethyl-3-oxo-7-vinyldecahydro-4,9a-propancyclopenta[8]cyclo-5-yl)oxy)-2-oxoethyl)thio)thiazolo[5,4-c]pyridin-5-ium]	32 µg/mL	16 µg/mL	64 µg/mL	16 µg/mL	513 µM	32 µg/mL	8 µg/mL	16 µg/mL	8 µg/mL			
C=C[C@]1(C)C[C@@H](OC(=O)CSc2nc3cc[n+](Cc4ccc(C(C)(C)C)cc4)cc3s2)[C@]2(C)[C@H](C)CC[C@]3(CCC(=O)[C@H]32)[C@@H](C)[C@@H]1O [Compound I-11, 5-(4-(tert-butyl)benzyl)-2-((2-(((3aR,4R,5R,7S,8S,9R,9aS,12R)-8-hydroxy-4,7,9,12-tetramethyl-3-oxo-7-vinyldecahydro-4,9a-propancyclopenta[8]cyclo-5-yl)oxy)-2-oxoethyl)thio)thiazolo[5,4-c]pyridin-5-ium]	16 µg/mL	32 µg/mL	16 µg/mL	64 µg/mL		32 µg/mL	32 µg/mL	32 µg/mL	8 µg/mL			
C=C[C@]1(C)C[C@@H](OC(=O)CSc2nc3cc[n+](Cc4cc(F)ccc4C#N)cc3s2)[C@]2(C)[C@H](C)CC[C@]3(CCC(=O)[C@H]32)[C@@H](C)[C@@H]1O [Compound I-13, 5-(2-cyano-5-fluorobenzyl)-2-((2-(((3aR,4R,5R,7S,8S,9R,9aS,12R)-8-hydroxy-4,7,9,12-tetramethyl-3-oxo-7-vinyldecahydro-4,9a-propancyclopenta[8]cyclo-5-yl)oxy)-2-oxoethyl)thio)thiazolo[5,4-c]pyridin-5-ium]	32 µg/mL	64 µg/mL	64 µg/mL	32 µg/mL	231 µM	32 µg/mL	64 µg/mL	64 µg/mL	64 µg/mL			
C=C[C@]1(C)C[C@@H](OC(=O)CS[C@@H]2C[C@H]3CC[C@@H](C2)N3C)[C@]2(C)[C@H](C)CC[C@]3(CCC(=O)[C@H]32)[C@@H](C)[C@@H]1O [Retapamulin, retapamulin, reference compound]	32 µg/mL (≈ 61.8 µM)	32 µg/mL (≈ 61.8 µM)					4 µg/mL (≈ 7.73 µM)	128 µg/mL (≈ 247 µM)	4 µg/mL (≈ 7.73 µM)	57.5 µM	61.1 µM	71.5 µM
C=C[C@]1(C)C[C@@H](OC(=O)CSCCN(CC)CC)[C@]2(C)[C@H](C)CC[C@]3(CCC(=O)[C@H]32)[C@@H](C)[C@@H]1O [Tiamulin, tiamulin, reference compound]					259 µM (≈ 128 µg/mL)							

More lines, main results first:

MIC (E. coli CMCC 44103)	MIC (E. coli ATCC 25922)	MIC [1]	MIC [2]	solubility (physchem)	MIC [3]	MIC (S. aureus ATCC 29213)	MIC (S. enterica ATCC14028)	MIC (A. baumannii ATCC 19606)	SMILES	CC50 (HEK293 cells)	CC50 (HepG2 cells)	CC50 (A549 cells)
16 µg/mL	8 µg/mL	16 µg/mL	32 µg/mL	561 µM	8 µg/mL	16 µg/mL	32 µg/mL	32 µg/mL	C=C[C@]1(C)C[C@@H](OC(=O)CSc2nc3cc[n+](Cc4ccc(F)cc4)cc3s2)[C@]2(C)[C@H](C)CC[C@]3(CCC(=O)[C@H]32)[C@@H](C)[C@@H]1O [Compound I-3, 5-(4-fluorobenzyl)-2-((2-(((3aR,4R,5R,7S,8S,9R,9aS,12R)-8-hydroxy-4,7,9,12-tetramethyl-3-oxo-7-vinyldecahydro-4,9a-propancyclopenta[8]cyclo-5-yl)oxy)-2-oxoethyl)thio)thiazolo[5,4-c]pyridin-5-ium]			
8 µg/mL	16 µg/mL	8 µg/mL	32 µg/mL	247 µM	64 µg/mL	16 µg/mL	32 µg/mL	32 µg/mL	C=C[C@]1(C)C[C@@H](OC(=O)CSc2nc3cc[n+](Cc4ccc(OC)cc4)cc3s2)[C@]2(C)[C@H](C)CC[C@]3(CCC(=O)[C@H]32)[C@@H](C)[C@@H]1O [Compound I-4, 5-(4-methoxybenzyl)-2-((2-(((3aR,4R,5R,7S,8S,9R,9aS,12R)-8-hydroxy-4,7,9,12-tetramethyl-3-oxo-7-vinyldecahydro-4,9a-propancyclopenta[8]cyclo-5-yl)oxy)-2-oxoethyl)thio)thiazolo[5,4-c]pyridin-5-ium]			
32 µg/mL	32 µg/mL	32 µg/mL	32 µg/mL	623 µM	32 µg/mL	8 µg/mL	16 µg/mL	32 µg/mL	C=C[C@]1(C)C[C@@H](OC(=O)CSc2nc3cc[n+](Cc4ccc(Cl)cc4)cc3s2)[C@]2(C)[C@H](C)CC[C@]3(CCC(=O)[C@H]32)[C@@H](C)[C@@H]1O [Compound I-5, 5-(4-chlorobenzyl)-2-((2-(((3aR,4R,5R,7S,8S,9R,9aS,12R)-8-hydroxy-4,7,9,12-tetramethyl-3-oxo-7-vinyldecahydro-4,9a-propancyclopenta[8]cyclo-5-yl)oxy)-2-oxoethyl)thio)thiazolo[5,4-c]pyridin-5-ium]			
32 µg/mL	64 µg/mL	64 µg/mL	64 µg/mL	549 µM	32 µg/mL	16 µg/mL	64 µg/mL	32 µg/mL	C=C[C@]1(C)C[C@@H](OC(=O)CSc2nc3cc[n+](Cc4cc(C)cc(C)c4)cc3s2)[C@]2(C)[C@H](C)CC[C@]3(CCC(=O)[C@H]32)[C@@H](C)[C@@H]1O [Compound I-12, 5-(3,5-dimethylbenzyl)-2-((2-(((3aR,4R,5R,7S,8S,9R,9aS,12R)-8-hydroxy-4,7,9,12-tetramethyl-3-oxo-7-vinyldecahydro-4,9a-propancyclopenta[8]cyclo-5-yl)oxy)-2-oxoethyl)thio)thiazolo[5,4-c]pyridin-5-ium]			
64 µg/mL	32 µg/mL	32 µg/mL	32 µg/mL	126 µM	64 µg/mL	64 µg/mL	64 µg/mL	32 µg/mL	C=C[C@]1(C)C[C@@H](OC(=O)CSc2nc3cc[n+](Cc4cc(OC)cc(OC)c4)cc3s2)[C@]2(C)[C@H](C)CC[C@]3(CCC(=O)[C@H]32)[C@@H](C)[C@@H]1O [Compound I-14, 5-(3,5-dimethoxybenzyl)-2-((2-(((3aR,4R,5R,7S,8S,9R,9aS,12R)-8-hydroxy-4,7,9,12-tetramethyl-3-oxo-7-vinyldecahydro-4,9a-propancyclopenta[8]cyclo-5-yl)oxy)-2-oxoethyl)thio)thiazolo[5,4-c]pyridin-5-ium]			
